# “And” between values parts separate entries of the source, which are not always exact repeats. Equal entries are not always repeated.
# System: NCI-H322M multicellular tumor spheroids, viability (% test/control)
# Test: Anticancer human tumor NCI-H322M cell line growth inhibition;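 on viability, T/C: spheroids exposed to compound for seven days before readout; 100% = DMSO vehicle control wells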
# Details: for viability, T/C: stronger effect = lower value
# Outline: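 Single agents and combinations were tested on spheroids built from tumor cells plus HUVEC and hMSC, at half-log dilutions starting at or near clinical Cmax, else 10 microM; final DMSO 0.25% (v/v).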
# [1] = curve of first compound, second compound 0.003 µM
# [2] = second compound 0.003 µM, first compound 0.0316 µM
# [3] = second compound 0.003 µM, first compound 0.1 µM
# [4] = second compound 0.003 µM, first compound 0.316 µM
# [5] = second compound 0.003 µM, first compound 1 µM
# [6] = second compound 0.003 µM, first compound 3.16 µM
# [7] = second compound 0.003 µM, first compound 10 µM
# [8] = curve of first compound, second compound 30 pM
# [9] = curve of first compound, second compound 94.9 pM
# [10] = curve of first compound, second compound 0.0003 µM
# [11] = curve of first compound, second compound 0.000949 µM
# [12] = second compound 30 pM, first compound 0.0316 µM
# [13] = second compound 30 pM, first compound 0.1 µM
# [14] = second compound 30 pM, first compound 0.316 µM
# [15] = second compound 30 pM, first compound 1 µM
# [16] = second compound 30 pM, first compound 3.16 µM
# [17] = second compound 30 pM, first compound 10 µM
# [18] = second compound 94.9 pM, first compound 0.0316 µM
# [19] = second compound 94.9 pM, first compound 0.1 µM
# [20] = second compound 94.9 pM, first compound 0.316 µM
# [21] = second compound 94.9 pM, first compound 1 µM
# [22] = second compound 94.9 pM, first compound 3.16 µM
# [23] = second compound 94.9 pM, first compound 10 µM
# [24] = second compound 0.0003 µM, first compound 0.0316 µM
# [25] = second compound 0.0003 µM, first compound 0.1 µM
# [26] = second compound 0.0003 µM, first compound 0.316 µM
# [27] = second compound 0.0003 µM, first compound 1 µM
# [28] = second compound 0.0003 µM, first compound 3.16 µM
# [29] = second compound 0.0003 µM, first compound 10 µM
# [30] = second compound 0.000949 µM, first compound 0.0316 µM
# [31] = second compound 0.000949 µM, first compound 0.1 µM
# [32] = second compound 0.000949 µM, first compound 0.316 µM
# [33] = second compound 0.000949 µM, first compound 1 µM
# [34] = second compound 0.000949 µM, first compound 3.16 µM
# [35] = second compound 0.000949 µM, first compound 10 µM
smiles,measurement,setting,value
CNCc1ccc(-c2cc(-c3nc(-c4ccc(S(=O)(=O)C(C)C)cc4)cnc3N)on2)cc1 + Cn1nnc2c(C(N)=O)ncn2c1=O,IC50,"curve of first compound, second compound 1 µM",> 3 µM
same,IC50,"curve of first compound, second compound 3.16 µM",> 3 µM
same,IC50,"curve of first compound, second compound 10 µM",> 3 µM
same,IC50,"curve of first compound, second compound 31.6 µM",> 3 µM
same,IC50,"curve of first compound, second compound 100 µM",> 3 µM
same,"viability, T/C","second compound 1 µM, first compound 0.00949 µM",100%
same,"viability, T/C","second compound 1 µM, first compound 0.03 µM",104%
same,"viability, T/C","second compound 1 µM, first compound 0.0949 µM",82.1%
same,"viability, T/C","second compound 1 µM, first compound 0.3 µM",84.1%
same,"viability, T/C","second compound 1 µM, first compound 0.949 µM",75.7%
same,"viability, T/C","second compound 1 µM, first compound 3 µM",83.3%
same,"viability, T/C","second compound 3.16 µM, first compound 0.00949 µM",79.5%
same,"viability, T/C","second compound 3.16 µM, first compound 0.03 µM",76.2%
same,"viability, T/C","second compound 3.16 µM, first compound 0.0949 µM",75%
same,"viability, T/C","second compound 3.16 µM, first compound 0.3 µM",86.9%
same,"viability, T/C","second compound 3.16 µM, first compound 0.949 µM",81.4%
same,"viability, T/C","second compound 3.16 µM, first compound 3 µM",87.6%
same,"viability, T/C","second compound 10 µM, first compound 0.00949 µM",78.7%
same,"viability, T/C","second compound 10 µM, first compound 0.03 µM",89%
same,"viability, T/C","second compound 10 µM, first compound 0.0949 µM",77.6%
same,"viability, T/C","second compound 10 µM, first compound 0.3 µM",99.2%
same,"viability, T/C","second compound 10 µM, first compound 0.949 µM",81.1%
same,"viability, T/C","second compound 10 µM, first compound 3 µM",75.4%
same,"viability, T/C","second compound 31.6 µM, first compound 0.00949 µM",110%
same,"viability, T/C","second compound 31.6 µM, first compound 0.03 µM",76.2%
same,"viability, T/C","second compound 31.6 µM, first compound 0.0949 µM",78.3%
same,"viability, T/C","second compound 31.6 µM, first compound 0.3 µM",76.3%
same,"viability, T/C","second compound 31.6 µM, first compound 0.949 µM",68.4%
same,"viability, T/C","second compound 31.6 µM, first compound 3 µM",66%
same,"viability, T/C","second compound 100 µM, first compound 0.00949 µM",95.6%
same,"viability, T/C","second compound 100 µM, first compound 0.03 µM",87%
same,"viability, T/C","second compound 100 µM, first compound 0.0949 µM",81.7%
same,"viability, T/C","second compound 100 µM, first compound 0.3 µM",71%
same,"viability, T/C","second compound 100 µM, first compound 0.949 µM",70.1%
same,"viability, T/C","second compound 100 µM, first compound 3 µM",58.3%
[2H]c1nc(C)nc([2H])c1-c1cc(NC[C@@H](C)c2cccc3c(C(=O)NC)ccnc23)ncn1,"viability, T/C",compound 0.0316 µM,78.5% and 92.3% and 103%
same,"viability, T/C",compound 0.1 µM,84.9% and 85.2% and 114%
same,"viability, T/C",compound 0.316 µM,81% and 104% and 97.4%
same,"viability, T/C",compound 1 µM,85.9% and 101% (2×)
same,"viability, T/C",compound 3.16 µM,84.4% and 87.3% and 106%
same,"viability, T/C",compound 10 µM,88.4% and 85.9% and 108%
same,IC50,curve of compound,> 10 µM
COc1ccc([C@@H](O)c2cc(-c3ncnc4cc(N5CCOCC5)ccc34)c(F)cc2Cl)nn1 + CC[C@@]1(O)C(=O)OCc2c1cc1n(c2=O)Cc2cc3c(CN(C)C)c(O)ccc3nc2-1,IC50,[1],1.67 µM
same,IC50,"curve of first compound, second compound 0.00949 µM",1.36 µM
same,IC50,"curve of first compound, second compound 0.03 µM",1.05 µM
same,IC50,"curve of first compound, second compound 0.0949 µM",0.721 µM
same,IC50,"curve of first compound, second compound 0.3 µM",0.384 µM
same,"viability, T/C",[2],79.4%
same,"viability, T/C",[3],88.7%
same,"viability, T/C",[4],91.2%
same,"viability, T/C",[5],59.2%
same,"viability, T/C",[6],45%
same,"viability, T/C",[7],32.2%
same,"viability, T/C","second compound 0.00949 µM, first compound 0.0316 µM",80.8%
same,"viability, T/C","second compound 0.00949 µM, first compound 0.1 µM",75.8%
same,"viability, T/C","second compound 0.00949 µM, first compound 0.316 µM",79.7%
same,"viability, T/C","second compound 0.00949 µM, first compound 1 µM",52.5%
same,"viability, T/C","second compound 0.00949 µM, first compound 3.16 µM",45.4%
same,"viability, T/C","second compound 0.00949 µM, first compound 10 µM",32.2%
same,"viability, T/C","second compound 0.03 µM, first compound 0.0316 µM",72.5%
same,"viability, T/C","second compound 0.03 µM, first compound 0.1 µM",80.1%
same,"viability, T/C","second compound 0.03 µM, first compound 0.316 µM",61.8%
same,"viability, T/C","second compound 0.03 µM, first compound 1 µM",51.8%
same,"viability, T/C","second compound 0.03 µM, first compound 3.16 µM",37.2%
same,"viability, T/C","second compound 0.03 µM, first compound 10 µM",30.2%
same,"viability, T/C","second compound 0.0949 µM, first compound 0.0316 µM",76.5%
same,"viability, T/C","second compound 0.0949 µM, first compound 0.1 µM",61.7%
same,"viability, T/C","second compound 0.0949 µM, first compound 0.316 µM",61.9%
same,"viability, T/C","second compound 0.0949 µM, first compound 1 µM",46.3%
same,"viability, T/C","second compound 0.0949 µM, first compound 3.16 µM",36.1%
same,"viability, T/C","second compound 0.0949 µM, first compound 10 µM",29.8%
same,"viability, T/C","second compound 0.3 µM, first compound 0.0316 µM",56.4%
same,"viability, T/C","second compound 0.3 µM, first compound 0.1 µM",54.4%
same,"viability, T/C","second compound 0.3 µM, first compound 0.316 µM",52.7%
same,"viability, T/C","second compound 0.3 µM, first compound 1 µM",37.6%
same,"viability, T/C","second compound 0.3 µM, first compound 3.16 µM",26%
same,"viability, T/C","second compound 0.3 µM, first compound 10 µM",24.4%
CC(C)n1c(=O)n(C)c2cnc3cc(F)c(-c4ccc(OCCCN5CCCCC5)nc4)cc3c21 + COc1cc2c(cc1O)CCNC21CSC2c3c(OC(C)=O)c(C)c4c(c3C(COC1=O)N1C(O)C3Cc5cc(C)c(OC)c(O)c5C(C21)N3C)OCO4,IC50,[8],> 10 µM
same,IC50,[9],> 10 µM
same,IC50,[10],> 10 µM
same,IC50,[11],0.276 µM
same,IC50,[1],< 0.0316 µM
same,"viability, T/C",[12],74.8%
same,"viability, T/C",[13],73.8%
same,"viability, T/C",[14],74.4%
same,"viability, T/C",[15],62.8%
same,"viability, T/C",[16],64.2%
same,"viability, T/C",[17],54.7%
same,"viability, T/C",[18],77.3%
same,"viability, T/C",[19],64.4%
same,"viability, T/C",[20],85.3%
same,"viability, T/C",[21],69%
same,"viability, T/C",[22],61.4%
same,"viability, T/C",[23],62.5%
same,"viability, T/C",[24],58.5%
same,"viability, T/C",[25],59.9%
same,"viability, T/C",[26],58.3%
same,"viability, T/C",[27],72.1%
same,"viability, T/C",[28],68.5%
same,"viability, T/C",[29],60%
same,"viability, T/C",[30],63.8%
same,"viability, T/C",[31],69.2%
same,"viability, T/C",[32],45.3%
same,"viability, T/C",[33],42.2%
same,"viability, T/C",[34],46.6%
same,"viability, T/C",[35],57.1%
same,"viability, T/C",[2],5.32%
same,"viability, T/C",[3],5.15%
same,"viability, T/C",[4],3.05%
same,"viability, T/C",[5],3.74%
same,"viability, T/C",[6],6.35%
same,"viability, T/C",[7],6.1%
CNCc1ccc(-c2cc(-c3nc(-c4ccc(S(=O)(=O)C(C)C)cc4)cnc3N)on2)cc1,"viability, T/C",compound 0.00949 µM,101% and 98.9% and 108%
same,"viability, T/C",compound 0.03 µM,92% and 104% and 77.6%
same,"viability, T/C",compound 0.0949 µM,86.2% and 90.6% and 82.5%
same,"viability, T/C",compound 0.3 µM,75.3% and 82.6% and 88.2%
same,"viability, T/C",compound 0.949 µM,93% and 95.4% and 77.4%
same,"viability, T/C",compound 3 µM,90.5% and 94.3% and 74.9%
same,IC50,curve of compound,> 3 µM
COc1cc(C)[nH]c(=O)c1CN1CCc2c(Cl)cc(C(OC)C3COC3)c(Cl)c2C1=O (centres undefined) + COc1cc2c(cc1O)CCNC21CSC2c3c(OC(C)=O)c(C)c4c(c3C(COC1=O)N1C(O)C3Cc5cc(C)c(OC)c(O)c5C(C21)N3C)OCO4,IC50,[8],> 10 µM
same,IC50,[9],> 10 µM
same,IC50,[10],> 10 µM
same,IC50,[11],> 10 µM
same,IC50,[1],< 0.0316 µM
same,"viability, T/C",[12],75.3%
same,"viability, T/C",[13],82.3%
same,"viability, T/C",[14],80.6%
same,"viability, T/C",[15],84%
same,"viability, T/C",[16],84.4%
same,"viability, T/C",[17],91.7%
same,"viability, T/C",[18],92.6%
same,"viability, T/C",[19],77.5%
same,"viability, T/C",[20],83.3%
same,"viability, T/C",[21],81%
same,"viability, T/C",[22],81.4%
same,"viability, T/C",[23],84.1%
same,"viability, T/C",[24],78.7%
same,"viability, T/C",[25],94.2%
same,"viability, T/C",[26],79%
same,"viability, T/C",[27],83.4%
same,"viability, T/C",[28],97.6%
same,"viability, T/C",[29],87.2%
same,"viability, T/C",[30],81.8%
same,"viability, T/C",[31],82.2%
same,"viability, T/C",[32],82.8%
same,"viability, T/C",[33],78.8%
same,"viability, T/C",[34],74.7%
same,"viability, T/C",[35],79.5%
same,"viability, T/C",[2],6.18%
same,"viability, T/C",[3],10.3%
same,"viability, T/C",[4],6.44%
same,"viability, T/C",[5],7.13%
same,"viability, T/C",[6],4.79%
same,"viability, T/C",[7],5.29%

# From PubChem BioAssay AID1845211 (Molecular Pharmacology Branch, DTP, NCI, 2023)
